These compounds were tested against T1, TYK2 (Homo sapiens, UniProt P29597) (assay: TYK2 MSD degradation in OCI-LY10 cells). Settings: OCI-LY10 cells, 4 to 24 hours incubation.
T1 construct: Degradation of TYK2 in cells was quantitatively measured using Meso Scale Discovery (MSD) technology; endogenous in cells; host or cells: OCI-LY10
Assay type: cell-based
In short: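 Cellular TYK2 levels were measured by Meso Scale Discovery sandwich detection in RIPA lysates of OCI-LY10 cells exposed 4 to 24 hours at 37° C to nine 1:3 compound doses starting at 1 to 10 μM final; dose-response fitted by four-parameter regression.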

T1 sequence (P29597 whole entry): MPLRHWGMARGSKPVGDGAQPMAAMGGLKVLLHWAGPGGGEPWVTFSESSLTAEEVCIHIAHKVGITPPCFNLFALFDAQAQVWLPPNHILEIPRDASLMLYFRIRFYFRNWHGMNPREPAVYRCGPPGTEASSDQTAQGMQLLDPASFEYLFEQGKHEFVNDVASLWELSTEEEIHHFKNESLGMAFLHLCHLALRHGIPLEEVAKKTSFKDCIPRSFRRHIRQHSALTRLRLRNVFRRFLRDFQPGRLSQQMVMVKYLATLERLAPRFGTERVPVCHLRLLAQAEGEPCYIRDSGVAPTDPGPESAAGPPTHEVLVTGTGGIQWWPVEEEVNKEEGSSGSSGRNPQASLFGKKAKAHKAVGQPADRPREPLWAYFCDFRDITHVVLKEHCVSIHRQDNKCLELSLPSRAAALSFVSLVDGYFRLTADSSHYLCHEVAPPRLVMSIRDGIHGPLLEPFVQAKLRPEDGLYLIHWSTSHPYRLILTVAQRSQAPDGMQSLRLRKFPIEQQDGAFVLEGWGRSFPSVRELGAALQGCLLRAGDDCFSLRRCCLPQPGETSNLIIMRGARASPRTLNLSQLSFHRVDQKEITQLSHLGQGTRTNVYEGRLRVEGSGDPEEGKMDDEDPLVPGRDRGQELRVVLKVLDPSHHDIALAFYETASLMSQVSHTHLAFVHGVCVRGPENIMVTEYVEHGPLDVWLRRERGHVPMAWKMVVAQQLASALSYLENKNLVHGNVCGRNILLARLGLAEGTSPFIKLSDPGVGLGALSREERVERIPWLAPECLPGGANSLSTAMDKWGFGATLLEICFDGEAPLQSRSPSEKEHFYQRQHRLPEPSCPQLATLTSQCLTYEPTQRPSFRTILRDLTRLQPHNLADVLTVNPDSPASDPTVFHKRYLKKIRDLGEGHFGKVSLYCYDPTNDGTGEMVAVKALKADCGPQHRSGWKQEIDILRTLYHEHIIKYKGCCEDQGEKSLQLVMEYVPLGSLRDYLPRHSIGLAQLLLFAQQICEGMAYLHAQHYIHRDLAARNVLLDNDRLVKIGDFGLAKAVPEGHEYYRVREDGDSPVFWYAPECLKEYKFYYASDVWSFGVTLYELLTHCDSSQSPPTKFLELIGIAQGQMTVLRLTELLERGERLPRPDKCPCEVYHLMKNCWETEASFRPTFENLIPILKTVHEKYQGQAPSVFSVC

Structure (SMILES) | TYK2 MSD OCI-LY10 Dmax %
CNc1cc(N2CCc3c(-c4ccc(OCCC5CCN(C(=O)c6ccc(Cl)c(N7CCC(=O)NC7=O)c6)CC5)cn4)cccc32)nn2c(C(=O)N[C@@H]3C[C@@H]3F)cnc12 [I-617] | C (C (75 to 50%))
CNc1cc(N2CCc3c(-c4ccc(CN5CCC6(CC5)CC(COc5ccc(Cl)c(C7CCC(=O)NC7=O)c5)C6)cn4)cccc32)nn2c(C(=O)N[C@@H]3C[C@@H]3F)cnc12 (some centres unmarked) [I-461] | D (D (<50%))
CNc1cc(N2CCc3c(CN4CCC(CN5CCC(N6CCN(C(=O)c7ccc(Cl)c(N8CCC(=O)NC8=O)c7)CC6)CC5)C(F)(F)C4)cccc32)nn2c(C(=O)N[C@@H]3C[C@@H]3F)cnc12 (some centres unmarked) [I-770] | B (B (90 to >75%))
CNc1cc(N2CCc3c(-c4ccc(CN5CC6(CCC(N(C)c7ccc(Cl)c(N8CCC(=O)NC8=O)c7)CC6)C5)cn4)cccc32)nn2c(C(=O)N[C@@H]3CC[C@H]3OC)cnc12 [I-752] | B (B (90 to >75%))
CNc1cc(N2CCc3c(CN4CCC(N5CCC(CC#Cc6cccc7c6n(C)c(=O)n7C6CCC(=O)NC6=O)CC5)C(F)(F)C4)cccc32)nn2c(C(=O)NC3CC3F)cnc12 (centres unmarked) [I-488] | D (D (<50%))
CNc1cc(-c2cn(C3CCN(C4CCN(C(=O)c5ccc(Cl)c(N6CCC(=O)NC6=O)c5)CC4)CC3)c3ccccc23)nn2c(C(=O)N[C@@H]3C[C@@H]3F)cnc12 [I-767] | D (D (<50%))
CNc1cc(N2CCc3c(-c4ncc(CN5CCC6(CCN(C(=O)c7cc(C)c(Cl)c(N8CCC(=O)NC8=O)c7)CC6)C(F)(F)C5)cc4C)cccc32)nn2c(C(=O)N[C@@H]3C[C@@H]3F)cnc12 [I-763] | B (B (90 to >75%))
CNc1cc(N2CCc3c(-c4ccc(CN5CCC(N6CCC(N(C)c7ccc(Cl)c(N8CCC(=O)NC8=O)c7)CC6)C(F)(F)C5)cn4)cccc32)nn2c(C(=O)N[C@@H]3C[C@@H]3F)cnc12 (some centres unmarked) [I-784] | C (C (75 to 50%))
CNc1cc(N2CCc3c(-c4ncc(CN5CC6(CCN(C(=O)c7cc(C)c(Cl)c(N8CCC(=O)NC8=O)c7)CC6(F)F)C5)cc4C)cccc32)nn2c(C(=O)N[C@@H]3C[C@@H]3F)cnc12 [I-756] | B (B (90 to >75%))
CNc1cc(N2CCc3c(N4CCC(CN5CCC6(CC5)CCN(c5ccc(Cl)c(C7CCC(=O)NC7=O)c5)CC6)CC4)cccc32)nn2c(C(=O)N[C@@H]3C[C@@H]3F)cnc12 (some centres unmarked) [I-513] | D (D (<50%))

Same assay, conditions: OCI-LY10 cells, 4 to 24 hours incubation, read-out: TYK2 MSD OCI-LY10 Rel-DC50

Structure (SMILES) | DC50 [nM]
CNc1cc(N2CCc3c(-c4ccc(OCCC5CCN(C(=O)c6ccc(Cl)c(N7CCC(=O)NC7=O)c6)CC5)cn4)cccc32)nn2c(C(=O)N[C@@H]3C[C@@H]3F)cnc12 [I-617] | < 10
CNc1cc(N2CCc3c(-c4ccc(CN5CCC6(CC5)CC(COc5ccc(Cl)c(C7CCC(=O)NC7=O)c5)C6)cn4)cccc32)nn2c(C(=O)N[C@@H]3C[C@@H]3F)cnc12 (some centres unmarked) [I-461] | < 10
CNc1cc(N2CCc3c(CN4CCC(CN5CCC(N6CCN(C(=O)c7ccc(Cl)c(N8CCC(=O)NC8=O)c7)CC6)CC5)C(F)(F)C4)cccc32)nn2c(C(=O)N[C@@H]3C[C@@H]3F)cnc12 (some centres unmarked) [I-770] | < 10
CNc1cc(N2CCc3c(-c4ccc(CN5CC6(CCC(N(C)c7ccc(Cl)c(N8CCC(=O)NC8=O)c7)CC6)C5)cn4)cccc32)nn2c(C(=O)N[C@@H]3CC[C@H]3OC)cnc12 [I-752] | < 10
CNc1cc(N2CCc3c(CN4CCC(N5CCC(CC#Cc6cccc7c6n(C)c(=O)n7C6CCC(=O)NC6=O)CC5)C(F)(F)C4)cccc32)nn2c(C(=O)NC3CC3F)cnc12 (centres unmarked) [I-488] | 10 to 100
CNc1cc(-c2cn(C3CCN(C4CCN(C(=O)c5ccc(Cl)c(N6CCC(=O)NC6=O)c5)CC4)CC3)c3ccccc23)nn2c(C(=O)N[C@@H]3C[C@@H]3F)cnc12 [I-767] | > 100
CNc1cc(N2CCc3c(-c4ncc(CN5CCC6(CCN(C(=O)c7cc(C)c(Cl)c(N8CCC(=O)NC8=O)c7)CC6)C(F)(F)C5)cc4C)cccc32)nn2c(C(=O)N[C@@H]3C[C@@H]3F)cnc12 [I-763] | < 10
CNc1cc(N2CCc3c(-c4ccc(CN5CCC(N6CCC(N(C)c7ccc(Cl)c(N8CCC(=O)NC8=O)c7)CC6)C(F)(F)C5)cn4)cccc32)nn2c(C(=O)N[C@@H]3C[C@@H]3F)cnc12 (some centres unmarked) [I-784] | 10 to 100
CNc1cc(N2CCc3c(-c4ncc(CN5CC6(CCN(C(=O)c7cc(C)c(Cl)c(N8CCC(=O)NC8=O)c7)CC6(F)F)C5)cc4C)cccc32)nn2c(C(=O)N[C@@H]3C[C@@H]3F)cnc12 [I-756] | < 10
CNc1cc(N2CCc3c(N4CCC(CN5CCC6(CC5)CCN(c5ccc(Cl)c(C7CCC(=O)NC7=O)c5)CC6)CC4)cccc32)nn2c(C(=O)N[C@@H]3C[C@@H]3F)cnc12 (some centres unmarked) [I-513] | 10 to 100

Same assay, conditions: TYK2 degradation in OCI-LY10 cells, 4 to 24 hours incubation

Structure (SMILES) | TYK2 MSD OCI-LY10 Dmax %
CNc1cc(N2CCc3c(C#CCN4CCC(N5CC6(CN(C(=O)c7ccc(Cl)c(N8CCC(=O)NC8=O)c7)C6)C5)C(F)(F)C4)cccc32)nn2c(C(=O)N[C@@H]3C[C@@H]3F)cnc12 (some centres unmarked) [I-795] | A (A (>90%))
CNc1cc(N2CCc3c(-c4ccc(CN5CC(F)(F)C6(CCN(C(=O)c7ccc(Cl)c(N8CCC(=O)NC8=O)c7)CC6)C5)cn4)cccc32)nn2c(C(=O)N[C@@H]3C[C@@H]3F)cnc12 [I-849] | B (B (90 to >75%))
CNc1cc(N2CCc3c(-c4ccc(CN5CC6(CCC(=Cc7ccc(Cl)c(N8CCC(=O)NC8=O)c7)CC6)C5)cn4)cccc32)nn2c(C(=O)N[C@@H]3C[C@@H]3F)cnc12 [I-884] | C (C (75 to 50%))
COC1(c2cc(C)cc(-c3cn(CCC4CCN(C5CCN(c6cc(F)c(C7CCC(=O)NC7=O)c(F)c6)CC5)CC4)c4cnc(NC(C)=O)cc34)n2)CCOC1 (centres unmarked) [I-1130] | B (B (90 to >75%))
CNc1cc(N2CCc3c(-c4ccc(OC5CC6(CCN(C(=O)c7cc(C)c(Cl)c(N8CCC(=O)NC8=O)c7)CC6)C5)cn4)cccc32)nn2c(C(=O)N[C@@H]3CC[C@H]3OC)cnc12 [I-997] | A (A (>90%))
CNc1cc(N2CCc3c(-c4ccc(CC5CN(C6CCN(C7CCN(c8ccc9c(c8)n(C)c(=O)n9C8CCC(=O)NC8=O)CC7)CC6(F)F)C5)cn4)cccc32)nn2c(C(=O)N[C@@H]3C[C@@H]3F)cnc12 (some centres unmarked) [I-359] | B (B (90 to >75%))
CNc1cc(N2CCc3c(CN4CCC(N5CCC6(CCN(C(=O)c7ccc(Cl)c(N8CCC(=O)NC8=O)c7)CC6)C5)C(F)(F)C4)cccc32)nn2c(C(=O)N[C@@H]3C[C@@H]3F)cnc12 (some centres unmarked) [I-805] | A (A (>90%))
CNc1cc(N2CCc3c(-c4ccc(CN5CCC(Oc6ccc(C7CCC(=O)NC7=O)c(Cl)c6)CC5)cn4)cccc32)nn2c(C(=O)N[C@@H]3C[C@@H]3F)cnc12 (some centres unmarked) [I-387] | B (B (90 to >75%))
CNc1cc(N2CCc3c(CN4CC[C@@H](N5CCC6(CC5)CN(C(=O)c5cc(Cl)c(C)c(N7CCC(=O)NC7=O)c5)C6)C(F)(F)C4)cccc32)nn2c(C(=O)N[C@@H]3CC[C@H]3OC)cnc12 [I-1141] | A (A (>90%))
CNc1cc(N2CCc3c(-c4ccc(CN5CCC6(CCN(C(=O)c7ccc(Cl)c(N8CCC(=O)NC8=O)c7)C6)C(F)(F)C5)cn4)cccc32)nn2c(C(=O)N[C@@H]3C[C@@H]3F)cnc12 (some centres unmarked) [I-1082] | B (B (90 to >75%))
CNc1cc(N2CCc3c(CN4CCC(N5CCC6(CCN(C(=O)c7cc(F)c(Cl)c(N8CCC(=O)NC8=O)c7)CC6)CC5)C(F)(F)C4)cccc32)nn2c(C(=O)NC3CCC3OC)cnc12 (centres unmarked) [I-1078] | A (A (>90%))
CNc1cc(N2CC3(CCN(CC4CCN(c5cccc6c5n(C)c(=O)n6C5CCC(=O)NC5=O)CC4)CC3)c3ccccc32)nn2c(C(=O)NC3CC3)cnc12 (centres unmarked) [I-25] | D (D (<50%))

Same assay, conditions: TYK2 degradation in OCI-LY10 cells, 4 to 24 hours incubation, read-out: TYK2 MSD OCI-LY10 Rel-DC50

Structure (SMILES) | DC50 [nM]
CNc1cc(N2CCc3c(C#CCN4CCC(N5CC6(CN(C(=O)c7ccc(Cl)c(N8CCC(=O)NC8=O)c7)C6)C5)C(F)(F)C4)cccc32)nn2c(C(=O)N[C@@H]3C[C@@H]3F)cnc12 (some centres unmarked) [I-795] | < 1
CNc1cc(N2CCc3c(-c4ccc(CN5CC(F)(F)C6(CCN(C(=O)c7ccc(Cl)c(N8CCC(=O)NC8=O)c7)CC6)C5)cn4)cccc32)nn2c(C(=O)N[C@@H]3C[C@@H]3F)cnc12 [I-849] | < 10
CNc1cc(N2CCc3c(-c4ccc(CN5CC6(CCC(=Cc7ccc(Cl)c(N8CCC(=O)NC8=O)c7)CC6)C5)cn4)cccc32)nn2c(C(=O)N[C@@H]3C[C@@H]3F)cnc12 [I-884] | 10 to 100
COC1(c2cc(C)cc(-c3cn(CCC4CCN(C5CCN(c6cc(F)c(C7CCC(=O)NC7=O)c(F)c6)CC5)CC4)c4cnc(NC(C)=O)cc34)n2)CCOC1 (centres unmarked) [I-1130] | < 10
CNc1cc(N2CCc3c(-c4ccc(OC5CC6(CCN(C(=O)c7cc(C)c(Cl)c(N8CCC(=O)NC8=O)c7)CC6)C5)cn4)cccc32)nn2c(C(=O)N[C@@H]3CC[C@H]3OC)cnc12 [I-997] | < 1
CNc1cc(N2CCc3c(-c4ccc(CC5CN(C6CCN(C7CCN(c8ccc9c(c8)n(C)c(=O)n9C8CCC(=O)NC8=O)CC7)CC6(F)F)C5)cn4)cccc32)nn2c(C(=O)N[C@@H]3C[C@@H]3F)cnc12 (some centres unmarked) [I-359] | < 1
CNc1cc(N2CCc3c(CN4CCC(N5CCC6(CCN(C(=O)c7ccc(Cl)c(N8CCC(=O)NC8=O)c7)CC6)C5)C(F)(F)C4)cccc32)nn2c(C(=O)N[C@@H]3C[C@@H]3F)cnc12 (some centres unmarked) [I-805] | < 1
CNc1cc(N2CCc3c(-c4ccc(CN5CCC(Oc6ccc(C7CCC(=O)NC7=O)c(Cl)c6)CC5)cn4)cccc32)nn2c(C(=O)N[C@@H]3C[C@@H]3F)cnc12 (some centres unmarked) [I-387] | 10 to 100
CNc1cc(N2CCc3c(CN4CC[C@@H](N5CCC6(CC5)CN(C(=O)c5cc(Cl)c(C)c(N7CCC(=O)NC7=O)c5)C6)C(F)(F)C4)cccc32)nn2c(C(=O)N[C@@H]3CC[C@H]3OC)cnc12 [I-1141] | < 1
CNc1cc(N2CCc3c(-c4ccc(CN5CCC6(CCN(C(=O)c7ccc(Cl)c(N8CCC(=O)NC8=O)c7)C6)C(F)(F)C5)cn4)cccc32)nn2c(C(=O)N[C@@H]3C[C@@H]3F)cnc12 (some centres unmarked) [I-1082] | < 1
CNc1cc(N2CCc3c(CN4CCC(N5CCC6(CCN(C(=O)c7cc(F)c(Cl)c(N8CCC(=O)NC8=O)c7)CC6)CC5)C(F)(F)C4)cccc32)nn2c(C(=O)NC3CCC3OC)cnc12 (centres unmarked) [I-1078] | < 1
CNc1cc(N2CC3(CCN(CC4CCN(c5cccc6c5n(C)c(=O)n6C5CCC(=O)NC5=O)CC4)CC3)c3ccccc32)nn2c(C(=O)NC3CC3)cnc12 (centres unmarked) [I-25] | > 100

Reference: patent US20260125400A1, “TYK2 DEGRADERS AND USES THEREOF” (Kymera Therapeutics, Inc., priority 2023, published 2026)
